Assay results reported in article PMC8389807 (Journal of Medicinal Chemistry, 2021).
Like-named read-outs stand apart in the source and are kept apart here.

Experiments:
[1] = system: BrCr Lab Strain of EV-A71; assay: Antiviral activity against the BrCr lab strain of EV-A71 in RD cells (CPE reduction, MTS/PMS); assay type: cell-based; details: Enterovirus A, EVA71, RD, read-out: EC50
[2] = system: coxsackievirus B3 Nancy strain; assay: microbe, parasite or virus in culture; assay type: cell-based; details: Enterovirus B, Vero A host cell
[3] = system: enterovirus D68 CU70 strain; assay: microbe, parasite or virus in culture; assay type: cell-based; details: Enterovirus D, HeLa Rh host cell
rhinovirus 2 = assay: microbe, parasite or virus in culture; assay type: cell-based; details: Enterovirus; rhinovirus 2, HeLa Rh host cell
rhinovirus 14 = assay: microbe, parasite or virus in culture; assay type: cell-based; details: Enterovirus; rhinovirus 14, HeLa Rh host cell
[4] = system: EV71 genogroup B2 strain 11316; assay: microbe, parasite or virus in culture; assay type: cell-based; details: Enterovirus A, genogroup B2, strain 11316, RD cells
[5] = system: EV71 genogroup B5 strain TW/70902/08; assay: microbe, parasite or virus in culture; assay type: cell-based; details: Enterovirus A, genogroup B5, strain TW/70902/08, RD cells
[6] = system: EV71 genogroup C2 strain H08300 461#812; assay: microbe, parasite or virus in culture; assay type: cell-based; details: Enterovirus A, genogroup C2, strain H08300 461#812, RD cells
[7] = system: EV71 genogroup C4 strain TW/1956/05; assay: microbe, parasite or virus in culture; assay type: cell-based; details: Enterovirus A, genogroup C4, strain TW/1956/05, RD cells
EV-A71 VP1 (S184T) = assay type: cell-based
EV-A71 VP1 (P246S) = assay type: cell-based
EV-A71 VP1 (S184T/P246S) = assay type: cell-based
HIV-1 (NL4.3) [8] = assay: microbe, parasite or virus in culture; assay type: cell-based; details: Human immunodeficiency virus 1, MT4; MT-4 cells; 50% reduction of virus-induced cytopathic effect
HIV-2 (ROD) = assay: Anti-HIV-2 activity in MT-4 cells (CPE, MTS/PES); assay type: cell-based; details: Human immunodeficiency virus 2, MT4, MT-4 cells; 50% reduction of virus-induced cytopathic effect; read-out: HIV-2 (ROD) EC50
[9] = molecular target: T1, recombinant HIV-1 IIIB gp120 (Human immunodeficiency virus type 1 group M subtype B, UniProt P03375); assay: biochemical; assay type: binding; details: SPR, four replicates
T1 construct: purchased ImmunoDx, Woburn, Massachusetts; host or cells: Chinese hamster ovary cells

gp120-CD4 binding = molecular target: T2, gp120-CD4 binding (Human immunodeficiency virus type 1 group M subtype B, UniProt P03375); assay: biochemical
T2 construct: […]; purchased CD4: Life Technologies Europe, Merelbeke, Belgium; gp120: not restated here (ImmunoDx inferred)

HIV-1 (NL4.3) [10] = assay: microbe, parasite or virus in culture; assay type: cell-based; details: Human immunodeficiency virus 1; CXCR4-tropic strain, PBMC; read-out: HIV-1 (NL4.3) EC50
HIV-1 (Ba-L) = assay: microbe, parasite or virus in culture; assay type: cell-based; details: Human immunodeficiency virus 1, BAL; CCR5-tropic strain, PBMC; read-out: HIV-1 (Ba-L) EC50
[11] = molecular target: gp120 binding of mAb 2G12 (Human immunodeficiency virus type 1, UniProt P03377); assay: cell-based; assay type: cell-based; details: HIV-1 NL4.3-infected MT-4 cells, flow cytometry
[12] = molecular target: gp120 binding of mAb clone 447-52D (Human immunodeficiency virus type 1, UniProt P03377); assay: Competition with anti-gp120 mAb 447-52D on HIV-1-infected MT-4 cells (flow cytometry); assay type: cell-based, HIV-1 NL4.3
Procedure: (§1) We then investigated the putative gp120 binding site for this class of compounds using competition-binding experiments with mAbs directed to different protein regions: (i) human mAb clone 2G12, whose epitope, composed entirely of N-linked glycans, is centered at position N332;[56]
(§2) These tests were carried out in cell culture using CD4^+ MT-4 T cells that express high levels of gp120 on their membrane when they become infected.
anti-mouse mAb). This is background staining or called negative control (NC).
bPositive control. HIV-1 infected cells stained with the first (anti-HIV-1 envelope antibody) and then the
This is the positive control (PC).
Finally, the mannose-specific lectin Hippeastrum hybrid agglutinin

[13] = molecular target: gp120 binding of mAb clone 9284 (Human immunodeficiency virus type 1, UniProt P03377); assay: Competition with anti-gp120 mAb 9284 on HIV-1-infected MT-4 cells (flow cytometry); assay type: cell-based, HIV-1 NL4.3
Procedure: as §1, §2

[14] = molecular target: gp120 binding of mAb 9305 (Human immunodeficiency virus type 1, UniProt P03377); assay: cell-based; details: HIV-1 NL4.3-infected MT-4 cells, flow cytometry
in vitro [15] = details: human
in vitro [16] = details: human; remark: listed apart in the source

What does the source list for O=C(CCOCC(COCCC(=O)NC(Cc1c(-c2cc(C(=O)O)cc(C(=O)O)c2)[nH]c2c(-c3cc(C(=O)O)cc(C(=O)O)c3)cccc12)C(=O)O)(COCCC(=O)NC(Cc1c(-c2cc(C(=O)O)cc(C(=O)O)c2)[nH]c2c(-c3cc(C(=O)O)cc(C(=O)O)c3)cccc12)C(=O)O)COCCC(=O)NC(Cc1c(-c2cc(C(=O)O)cc(C(=O)O)c2)[nH]c2c(-c3cc(C(=O)O)cc(C(=O)O)c3)cccc12)C(=O)O)NC(Cc1c(-c2cc(C(=O)O)cc(C(=O)O)c2)[nH]c2c(-c3cc(C(=O)O)cc(C(=O)O)c3)cccc12)C(=O)O (stereo not drawn) [Compound 33]?
EC50 ([1]; BrCr lab strain, RD cells, 50% reduction of virus-induced CPE): 40 ± 10 nM; EC50 ([1]; BrCr wild type (cross-resistance study)): 30 ± 10 nM; EC50 ([1]; enterovirus panel, enterovirus A71 BrCr strain, RD host cell): 40 ± 7 nM; EC50 ([1]; genogroup A, BrCr, RD cells (clinical isolate panel)): 43 ± 6 nM; EC50 [2]: > 50 µM; EC50 [3]: > 50 µM; EC50 (rhinovirus 2): > 50 µM; EC50 (rhinovirus 14): > 50 µM; EC50 [4]: 101 ± 11 nM; EC50 [5]: 10 ± 1.5 nM; EC50 [6]: 120 ± 6 nM; EC50 [7]: 11 ± 0.2 nM; EC50 (EV-A71 VP1 (S184T)): 100 ± 10 nM; EC50 (EV-A71 VP1 (P246S)): 30 ± 10 nM; EC50 (EV-A71 VP1 (S184T/P246S)): 60 ± 40 nM; EC50 (HIV-1 (NL4.3) [8]): 6 ± 5 nM; EC50 (HIV-2 (ROD)): ~60 nM; kd ([9]; 1:1 Langmuir model): 2.45 ± 0.34 ×10^–3 s^–1; kon ([9]; 1:1 Langmuir model, read-out: ka): 3340 ± 1020 M⁻¹ s⁻¹; Kd ([9]; apparent KD): 840 ± 340 nM; IC50 (gp120-CD4 binding; SPR, 25 nM gp120, immobilized CD4, read-out: concentration inhibiting 50% of gp120-CD4 binding): 10 to 40 nM; times more potent than AL-471 (gp120-CD4 binding; inhibition of gp120-CD4 binding): at least 16; EC50 (HIV-1 (NL4.3) [10]): 33 nM; EC50 (HIV-1 (Ba-L)): 36 nM; 2G12 IC50 [11]: did not prevent the binding; IC50 [11]: > 100 µM; IC50 ([12]; HIV-1 NL4.3-infected MT-4 cells, flow cytometry, average, read-out: 447-52D IC50): 6.8 µM; inhibition at 0.16 µM ([12]; MT4, mAb 447-52D, 0.16 µM, Table S1, read-out: % inhibition of antibody binding): 16.9%; inhibition at 0.8 µM ([12]; MT4, mAb 447-52D, 0.8 µM, Table S1, read-out: % inhibition of antibody binding): 23.9%; inhibition at 4 µM ([12]; MT4, mAb 447-52D, 4 µM, Table S1, read-out: % inhibition of antibody binding): 36.5%; inhibition at 20 µM ([12]; MT4, mAb 447-52D, 20 µM, Table S1, read-out: % inhibition of antibody binding): 76.9%; % inhibition of antibody binding ([12]; mAb 447-52D, 0.16 µM, Table S1, listed as AL-518, 0.16 µM): 17%; % inhibition of antibody binding ([12]; mAb 447-52D, 20 µM, Table S1, listed as AL-518, 20 µM): 77%; IC50 ([12]; mAb 447-52D, Table S1, read-out: IC50): 6.85 µM; IC50 ([13]; HIV-1 NL4.3-infected MT-4 cells, flow cytometry, average, read-out: 9284 IC50): 3.8 µM; inhibition at 0.16 µM ([13]; MT4, mAb 9284, 0.16 µM, Table S2, read-out: % inhibition of antibody binding): 25.1%; inhibition at 0.8 µM ([13]; MT4, mAb 9284, 0.8 µM, Table S2, read-out: % inhibition of antibody binding): 37.9%; inhibition at 4 µM ([13]; MT4, mAb 9284, 4 µM, Table S2, read-out: % inhibition of antibody binding): 51.4%; inhibition at 20 µM ([13]; MT4, mAb 9284, 20 µM, Table S2, read-out: % inhibition of antibody binding): 61.1%; % inhibition of antibody binding ([13]; mAb 9284, 0.16 µM, Table S2, listed as AL-518, 0.16 µM): 25%; % inhibition of antibody binding ([13]; mAb 9284, 20 µM, Table S2, listed as AL-518, 20 µM): 61%; IC50 ([13]; mAb 9284, Table S2, read-out: IC50): 3.37 µM; IC50 [14]: > 100 µM; CC50 (in vitro [15]): > 100 µM; CC50 (in vitro [16]): > 100 µM
